How the values were obtained:
[1] = Zeta-potential of siRNA-lipid complexes (Malvern Zetasizer); type: physicochemical
Description: The cationic lipid carriers are dissolved in ethanol at a stock concentration of 2.5 mM, while all siRNA is reconstituted in nuclease-free water at a 0.25 μg/μL (18.8 μM) concentration. Nanoparticles are formulated by mixing the carriers with siRNA for a period of 30 min in RNase-free phosphate buffer saline (PBS) at pre-specified N/P ratios (N=number of protonable amines in lipid, P=number of phosphate groups in the siRNA). In preparing the lipoplexes, proper dilutions were made such that the volume ratio of ethanol:water was kept constant at 1:20. Minimizing the amount of ethanol is important because it is effective in dissolving lipids, thus inhibiting particle formation. The diameters (as determined by dynamic light scattering) and zeta potentials of all nanoparticles were analyzed using a Malvern Zetasizer instrument at pH=7.4. siRNA encapsulation efficiency was calculated using a RiboGreen fluorescence-based assay from Invitrogen, designed specifically for detection of free RNA at […] wavelengths of 480 and 520 nm, respectively. Nanoparticles were created with all carriers in the library so that final siRNA concentrations were 1.6 μg/mL. A linear standard curve was utilized to calculate the encapsulation efficiencies from signal intensities measured by a SpectraMax microplate reader (Molecular Devices).

[2] = test system: luciferase reporter; assay: Luciferase reporter silencing in HT29-Luc cells; type: cell-based, human; conditions: for Luciferase expression: 100 nM siRNA
Description: Gene silencing efficiency was investigated in the HT29-Luc cell line by analyzing the expression of a luciferase reporter after anti-Luc siRNA therapy. To perform this study, cancer cells were seeded in 12 well plates at a density of 20,000 cells per well. Transfections were conducted in fresh serum-free media with 100 nM of siRNA when the cells were 25% confluent. The cells continued to grow in normal growth media for an additional 48 and 72 h, at which point they were rinsed twice with PBS and lysed for protein collection. The lysis buffer was a component of a Promega Luciferase Assay kit designed for measuring luciferase expression in the cell lysate. Equally important, the lysis buffer was compatible with the BCA protein assay so that we were able to normalize the luciferase expression in our samples with total protein content. For this silencing study, all synthesized carriers were evaluated at N/P ratios of 8, 10, 12, 14, 16, 18, and 20 to determine the best transfection formulation. Relative luciferase expression was determined for each trial using a SpectraMax luminometer upon the addition of a light-inducing luciferin substrate to the collected protein.
The RNAi capabilities of each carrier were investigated by analyzing the silencing of a luciferase (Luc) reporter in HT29 cancer cells after anti-Luc siRNA therapy. To perform this study, we seeded HT29-Luc cells in 12 well plates at a density of 20,000 cells per well. When 25% confluency, the cells were incubated with fresh serum-free transfection media containing nanoparticles at a dose of 100 nM siRNA. After 4 hours, the media was replaced with fresh complete growth media, so that the cells could continue to grow for an additional 48-72 hours, at which point they were lysed for protein collection. The lysis buffer was compatible with the BCA protein assay so that we could normalize luciferase expression in our samples. Negative controls included cells that were treated with 1) particles encapsulating non-specific siRNA, 2) naked anti-Luc siRNA, or 3) plain serum-free media. Luciferase expression was determined using a Spectra Max luminometer upon the addition of a light-inducing substrate to the collected protein. A similar knockdown experiment was also conducted in non-cancerous CHO cells expressing a GFP reporter. Flow cytometry was utilized to assess the silencing efficiency of the ECO and ECL delivery systems in this cell line. Cytotoxicity of the carriers 48 hours post-transfection was also investigated in both cell lines using an MTT colorimetric assay. […] These RNAi silencing levels surpassed those obtained with a Lipofectamine RNAiMax commercial transfection agent.

[3] = test system: CHO-GFP cells; type: cell-based, Chinese hamster
Description: Cytotoxicity of the carriers was investigated using an MTT colorimetric assay measuring cellular metabolic activity (Invitrogen). The transfection procedure was identical to that presented for the reporter knockdown studies above, except for the fact that 96 well plates were utilized instead, and seeded with 10,000 cells per well. After transfection, the cells were allowed to grow for an additional 48 h. At that point, they were incubated with MTT for 4 h, followed by an additional 4 hour incubation with an SDS-HCl solution to dissolve any insoluble formazan crystals formed by the reduction of MTT by NAD(P)H-dependent enzymes in the cells. The absorbance of each sample was measured at 570 nm using a SpectraMax microplate reader. Cellular viability was calculated by averaging the signal intensities over three replicates and then normalizing the results relative to the negative control data.
The RNAi capabilities of each carrier were investigated by analyzing the silencing of a luciferase (Luc) reporter in HT29 cancer cells after anti-Luc siRNA therapy. To perform this study, we seeded HT29-Luc cells in 12 well plates at a density of 20,000 cells per well. […] Luciferase expression was determined using a Spectra Max luminometer upon the addition of a light-inducing substrate to the collected protein. […]

[4] = test system: HT29-Luc cells; assay: MTT cytotoxicity in HT29-Luc cells; type: cell-based, human
[5] = Ribogreen siRNA entrapment efficiency of ECO/siRNA nanoparticles; type: physicochemical
Excerpt: A Ribogreen assay (Molecular Probes) was used to quantify the entrapment efficiency of siRNA within the ECO/siRNA nanoparticles. […] Free siRNA following particle formation was detected using a SpectraMax microplate reader (Molecular Devices) with an excitation of 500 nm and emission of 525 nm.

[6] = Agarose gel retardation (siRNA loading); type: physicochemical
Description: The ability of ECO to complex and condense siRNA was assessed by gel electrophoresis. […] The gel was submerged in 0.5×Tris/Borate/EDTA (TBE) buffer and run at 100 V for 25 minutes. Free siRNA was run as the control. SiRNA bands were visualized using an AlphaImager ultraviolet imaging system (Biosciences). […] Following incubation, samples were loaded onto a 1% agarose gel containing ethidium bromide and run in the same manner as described. […] At each intermittent time point, aliquots were taken and stored at −80° C. After the final aliquot was taken at 24 hours, samples were incubated for 30 minutes with heparin at a heparin/siRNA (w/w) ratio of 5 to release the complexed siRNA cargo and each sample was loaded on the 1% agarose gel and run as described above. Free siRNA was also incubated in 50% serum for 0.5, 1, 6, or 24 hours and stored and run on the gel in a similar manner.

What does the source list for CCCCCCCC/C=C\CCCCCCCC(=O)N[C@@H](CS)C(=O)NCCNC(=O)CCN(CCN)CCC(=O)NCCNC(=O)[C@H](CS)NC(=O)CCCCCCC/C=C\CCCCCCCC [ECO, (1-aminoethyl)iminobis[N-(oleicylcysteinyl-1-amino-ethyl)propionamide]]?
Zeta-potential of siRNA-lipid complexes ([1]; pH = 7.4, N/P = 2): −32.20 ± 0.90 mV; Zeta-potential of siRNA-lipid complexes ([1]; pH = 7.4, N/P = 5): −16.84 ± 1.58 mV; Zeta-potential of siRNA-lipid complexes ([1]; pH = 7.4, N/P = 8): 28.82 ± 1.03 mV; Zeta-potential of siRNA-lipid complexes ([1]; pH = 7.4, N/P = 10): 25.68 ± 2.02 mV; Zeta-potential of siRNA-lipid complexes ([1]; pH = 7.4, N/P = 15): 25.19 ± 2.32 mV; luciferase knockdown (transfection efficiency) ([2]; HT29, N/P 18, 72 h post-transfection): 77.5±3.3%; silencing efficiency ([2]; HT29-Luc, N/P ratio of 18, over 72 hours): 80%; Luciferase expression ([2]; HT29-Luc, N/P=12, 72 h): 33.5±3.82%; Luciferase expression ([2]; HT29-Luc, N/P=18 (Lipofectamine per manufacturer), 72 h): 22.7±3.31%; cell viability (MTT) [3]: greater than 85%; cell viability (MTT) ([4]; HT29, N/P=18): 87.3±2.72%; cell viability (MTT) ([4]; HT29, N/P=20): 51.5±5.87%; siRNA entrapment (RiboGreen) ([5]; N/P=6): 82.1±4.3%; siRNA entrapment (RiboGreen) ([5]; N/P=20): 98.7±5.0%; N/P ratio at which complexed siRNA was completely prevented from migrating through the gel [6]: ≥ 14; N/P ratio at which no siRNA signal was observed in the loading well [6]: ≥ 18
